Here are results for 75 compounds from BindingDB's records for doi:10.7270/Q2CV4GM1 (D3R/Abbott, 2015).

Each structure is given as a SMILES string. pIC50: −log10 of the molar value. Values joined by “and” are separate entries in the source; they are usually repeats but may differ in a detail not shown here. Equal entries are not always repeated.

This test deals with T1, Tyrosine-protein kinase SYK [355-635] (Homo sapiens, UniProt P43405).
T1 construct: 355-635
Briefly: SYK assay_HTRF.
One may read the pIC50 as the IC50 on a negative log10 scale, so that one unit is a factor of ten. The low end stands for a high IC50, the high end for a low IC50. Consider `CCN(c1nc(Nc2ccc3c(c2)S(=O)(=O)NC3)ncc1Cl)c1cccc2[nH]ncc12` [GTC000222A], for which the pIC50 is 7.90 and 7.81 and 8.03.

For `c1cc(Nc2ccnc(Nc3ccc4c(c3)CCC4)n2)c2cn[nH]c2c1` [GTC000142A], the pIC50 is 6.94 and 6.59.

The compound `CN1CCN(C(=O)c2ccc(Nc3nccc(Nc4cccc5[nH]ncc45)n3)cc2)CC1` [GTC000185A] gave a negative-log IC50 (pIC50) of 5.38.

`CCN(c1nc(Nc2ccc3c(C)n(CCCO)nc3c2)ncc1F)c1cccc2[nH]ncc12` [GTC000370A] had a negative logarithm of the IC50 (pIC50) of 6.73.

`CS(=O)(=O)Nc1ccc(Nc2nccc(Nc3cccc4[nH]ncc34)n2)cc1` [GTC000217A] showed a negative-log IC50 (pIC50) of 6.38.

In the case of `Cc1cc(=O)[nH]c2cc(Nc3nccc(Nc4cccc5[nH]ncc45)n3)ccc12` [GTC000109A], the pIC50 was 7.27.

`O=S1(=O)NCc2ccc(Nc3nccc(N(CCCCO)c4cccc5[nH]ncc45)n3)cc21` [GTC000241A] had a pIC50 of 8.54.

Regarding `NS(=O)(=O)c1cccc(Nc2nccc(Nc3cccc4[nH]ncc34)n2)c1` [3-{[4-(1H-indazol-4-ylamino)pyrimidin-2-yl]amino}benzene-1-sulfonamide], the pIC50 is 7.74 and 7.32.

For the compound `CCN(c1nc(Nc2ccc(S(N)(=O)=O)cc2)ncc1F)c1cccc2[nH]ncc12` [GTC000261A], the negative logarithm of the IC50 (pIC50) was 8.30.

Consider `c1cc(Nc2nccc(Nc3cccc4[nH]ncc34)n2)cc(-c2nnn[nH]2)c1` [GTC000130A], for which the pIC50 is 8.46 and 7.84.

For the compound `CCN(c1nc(Nc2cccc(N3CCN(C)CC3)c2)ncc1F)c1cccc2[nH]ncc12` [GTC000331A], the pIC50 is 7.62.

`CCN(CC)CCCN(c1ccnc(Nc2ccc3c(c2)C(=O)NS3(=O)=O)n1)c1cccc2[nH]ncc12` [GTC000332A] showed a pIC50 of 7.62.

Take `O=C(O)Cc1cccc(Nc2nccc(Nc3cccc4[nH]ncc34)n2)c1` [GTC000125A]: the pIC50 was 6.93 and 6.31.

For `c1ccc(COc2cccc(Nc3nccc(Nc4cccc5[nH]ncc45)n3)c2)cc1` [GTC000173A], the pIC50 is 6.83 and 6.71 and 6.46 and 6.15.

For the compound `CCN(c1nc(Nc2cccc(O)c2)ncc1F)c1cccc2[nH]ncc12` [GTC000282A], the pIC50 is 8.10.

`CS(=O)(=O)c1cccc(Nc2ncc(F)c(N(CCCO)c3cccc4[nH]ncc34)n2)c1` [GTC000360A] gave a pIC50 of 7.10.

Take `CC(C)(C)OC(=O)COc1ccc(Nc2nccc(Nc3cccc4[nH]ncc34)n2)cc1` [GTC000194A]: the negative-log IC50 (pIC50) is 5.93 and 5.71 and 5.78.

Consider `c1cc(Nc2nccc(Nc3cccc4[nH]ncc34)n2)cc(-c2ccsc2)c1` [GTC000137A], for which the pIC50 was 7.03 and 6.79 and 6.80 and 6.45.

Take `Cc1ncoc1-c1cccc(Nc2nccc(N(CCCO)c3cccc4[nH]ncc34)n2)c1` [GTC000224A]: the pIC50 was 7.95.

Consider `COCCCN(c1ccnc(Nc2ccc3nn[nH]c3c2)n1)c1cccc2[nH]ncc12` [GTC000257A], for which the pIC50 is 8.30.

As to `CCN(c1nc(Nc2ccc3ncsc3c2)ncc1F)c1cccc2[nH]ncc12` [GTC000325A], the negative-log IC50 (pIC50) was 8.00 and 7.25 and 7.53.

Compound `OCCN(c1ccnc(Nc2ccc3nn[nH]c3c2)n1)c1cccc2[nH]ncc12` [GTC000232A] gave a negative logarithm of the IC50 (pIC50) of 8.69.

`O=C(Cc1ccc(Nc2nccc(Nc3cccc4[nH]ncc34)n2)cc1)Nc1cccnc1` [GTC000219A] gave a negative-log IC50 (pIC50) of 6.27.

The compound `CN(c1nc(Nc2ccc3c(c2)COC(=O)N3)ncc1F)c1cccc2[nH]ncc12` [GTC000248A] gave a pIC50 of 8.41.

Regarding `CCN(c1nc(Nc2cccc(S(C)(=O)=O)c2)ncc1F)c1cccc2[nH]ncc12` [GTC000300A], the pIC50 is 7.95.

On to `COCCN(c1ccnc(Nc2ccc3cnn(C)c3c2)n1)c1cccc2[nH]ncc12` [GTC000313A], for which the pIC50 was 7.78.

The compound `NCCCCN(c1ccnc(Nc2ccc3[nH]c(=O)[nH]c3c2)n1)c1cccc2[nH]ncc12` [GTC000280A] showed a negative logarithm of the IC50 (pIC50) of 8.13.

`COCCCN(c1nc(Nc2ccc3[nH]c(=O)[nH]c3c2)ncc1F)c1cccc2[nH]ncc12` [GTC000263A] showed a pIC50 of 8.31.

With `CNS(=O)(=O)c1ccc(Nc2nccc(Nc3cccc4[nH]ncc34)n2)cc1` [GTC000184A], the negative-log IC50 (pIC50) is 6.31 and 6.35 and 6.79.

For `c1cc(Nc2ccnc(Nc3ccc(N4CCOCC4)cc3)n2)c2cn[nH]c2c1` [GTC000129A], the pIC50 was 6.66.

The compound `COCCCN(c1ccnc(Nc2ccc3c(c2)COC(=O)N3)n1)c1cccc2[nH]ncc12` [GTC000238A] showed a pIC50 of 8.53.

As to `O=C1NS(=O)(=O)c2cc(Nc3nccc(Nc4cccc5[nH]ncc45)n3)ccc21` [GTC000133A], the pIC50 was 7.76 and 7.35.

In the case of `O=C(Nc1ccccc1)c1ccc(Nc2nccc(Nc3cccc4[nH]ncc34)n2)cc1` [GTC000182A], the negative-log IC50 (pIC50) was 6.36 and 6.40.

In turn, `O=C(COc1ccc(Nc2nccc(Nc3cccc4[nH]ncc34)n2)cc1)NCCCN1CCCC1=O` [GTC000204A] had a negative-log IC50 (pIC50) of 5.68.

For the compound `Cc1cc(=O)[nH]c2c(C)cc(Nc3nccc(Nc4cccc5[nH]ncc45)n3)cc12` [GTC000177A], the negative logarithm of the IC50 (pIC50) is 7.86 and 7.37 and 7.45 and 7.71.

In turn, `CN(c1nc(Nc2ccc(C(N)=O)cc2)ncc1F)c1cccc2[nH]ncc12` [GTC000351A] showed a pIC50 of 7.44.

On to `COc1ccc(Nc2nccc(Nc3cccc4[nH]ncc34)n2)cc1Cl` [GTC000141A], for which the pIC50 is 6.85 and 6.84 and 6.55 and 6.21.

The compound `CCN(c1nc(Nc2ccc3c(c2)NC(=O)CO3)ncc1F)c1cccc2[nH]ncc12` [GTC000357A] gave a pIC50 of 7.17.

The compound `O=S1(=O)NCc2ccc(Nc3ncc(F)c(N(CCCO)c4cccc5[nH]ncc45)n3)cc21` [GTC000230A] gave a negative-log IC50 (pIC50) of 8.84.

Regarding `N#Cc1cccc(Nc2nccc(Nc3cccc4[nH]ncc34)n2)c1` [GTC000131A], the pIC50 is 7.20 and 7.15.

Turning to `Cc1ncoc1-c1ccc(Nc2nccc(Nc3cccc4[nH]ncc34)n2)cc1` [GTC000163A], the negative-log IC50 (pIC50) is 6.83 and 6.66.

Turning to `Cc1ccc(S(=O)(=O)Nc2ccc(Nc3nccc(Nc4cccc5[nH]ncc45)n3)cc2)cc1` [GTC000220A], the negative-log IC50 (pIC50) is 6.04.

Regarding `CCN(c1nc(Nc2ccc3c(c2)CCN3C(=O)C(F)(F)F)ncc1F)c1cccc2[nH]ncc12` [GTC000354A], the pIC50 was 7.23.

The compound `Cc1nc2cc(Nc3nccc(Nc4cccc5[nH]ncc45)n3)ccc2s1` [GTC000168A] showed a pIC50 of 6.33.

With `CCN(c1nc(Nc2ccc3nn[nH]c3c2)ncc1F)c1cccc2[nH]ncc12` [GTC000267A], the negative-log IC50 (pIC50) is 8.20.

`Cc1ncoc1-c1cccc(Nc2nccc(Nc3cccc4[nH]ncc34)n2)c1` [GTC000134A]: the pIC50 is 7.53 and 7.30 and 7.18 and 6.89.

As for `O=C(O)c1ccc(Nc2nccc(Nc3cccc4[nH]ncc34)n2)cc1` [GTC000210A], the pIC50 is 7.00 and 7.14 and 6.59 and 6.28.

`Cn1ncc2cc(Nc3nccc(N(CCCCO)c4cccc5[nH]ncc45)n3)ccc21` [GTC000287A]: the negative-log IC50 (pIC50) is 8.09.

Regarding `Cc1ccc(NC(=O)c2ccc(Nc3nccc(Nc4cccc5[nH]ncc45)n3)cc2)cc1` [GTC000183A], the negative logarithm of the IC50 (pIC50) was 6.26 and 6.21.

Consider `O=S1(=O)Cc2ccc(Nc3nccc(Nc4cccc5[nH]ncc45)n3)cc2C1` [GTC000147A], for which the pIC50 was 7.22 and 6.96.

Take `COc1ccc(Nc2nccc(Nc3cccc4[nH]ncc34)n2)cc1` [GTC000135A]: the negative logarithm of the IC50 (pIC50) is 6.75 and 6.65 and 6.61 and 6.03.

As for `CNC(=O)Cc1ccc(Nc2nccc(Nc3cccc4[nH]ncc34)n2)cc1` [GTC000218A], the negative logarithm of the IC50 (pIC50) was 5.90.

In turn, `NC(=O)c1cccc(Nc2nccc(Nc3cccc4[nH]ncc34)n2)c1` [3-{[4-(1H-indazol-4-ylamino)pyrimidin-2-yl]amino}benzamide] showed a pIC50 of 6.27.

Consider `O=S1(=O)CCc2ccc(Nc3ncc(F)c(N(CCCCO)c4cccc5[nH]ncc45)n3)cc21` [GTC000235A], for which the negative logarithm of the IC50 (pIC50) was 8.02 and 8.71 and 8.79.

Compound `NS(=O)(=O)c1cccc(Nc2ncc(F)c(N(CCCO)c3cccc4[nH]ncc34)n2)c1` [GTC000284A] showed a pIC50 of 8.06.

Turning to `CC(=O)N(C)c1ccc(Nc2nccc(Nc3cccc4[nH]ncc34)n2)cc1` [GTC000175A], the pIC50 was 6.10.

`O=S(=O)(O)c1cccc(Nc2nccc(Nc3cccc4[nH]ncc34)n2)c1` [GTC000190A] gave a pIC50 of 5.96.

`COCCCN(c1nc(Nc2ccc3nn[nH]c3c2)ncc1F)c1cccc2[nH]ncc12` [GTC000336A] gave a negative logarithm of the IC50 (pIC50) of 7.59.

As to `NC(=O)CN(c1nc(Nc2ccc3c(c2)S(=O)(=O)CC3)ncc1F)c1cccc2[nH]ncc12` [GTC000369A], the negative-log IC50 (pIC50) was 6.70.

In turn, `COCCCN(c1nc(Nc2cccc(S(C)(=O)=O)c2)ncc1F)c1cccc2[nH]ncc12` [GTC000347A] showed a pIC50 of 7.48.

Consider `CONS(=O)(=O)c1ccc(Nc2nccc(Nc3cccc4[nH]ncc34)n2)cc1` [GTC000180A], for which the negative-log IC50 (pIC50) was 6.70 and 6.56.

Take `Cc1nc2ccc(Nc3nccc(Nc4cccc5[nH]ncc45)n3)cc2s1` [GTC000123A]: the negative logarithm of the IC50 (pIC50) was 7.22 and 7.05.

Turning to `c1cc(Nc2ccnc(Nc3ccc4[nH]ncc4c3)n2)c2cn[nH]c2c1` [GTC000221A], the negative-log IC50 (pIC50) was 6.79 and 7.11 and 6.63.

The compound `NC(=O)COc1ccc(Nc2nccc(Nc3cccc4[nH]ncc34)n2)cc1` [GTC000196A] gave a pIC50 of 6.64.

`Cc1noc(NS(=O)(=O)Cc2ccc(Nc3nccc(Nc4cccc5[nH]ncc45)n3)cc2)c1C` [GTC000200A]: the negative logarithm of the IC50 (pIC50) is 6.05 and 5.74.

Consider `CCN(c1nc(Nc2ccc3[nH]c(=O)[nH]c3c2)ncc1F)c1cccc2[nH]ncc12` [GTC000237B], for which the pIC50 was 8.73 and 8.16 and 8.42 and 8.50 and 8.06 and 8.56.

For `NS(=O)(=O)c1ccc(Nc2nccc(Nc3cccc4[nH]ncc34)n2)cc1` [GTC000181A], the negative logarithm of the IC50 (pIC50) was 7.18 and 6.68 and 6.71 and 6.79 and 7.14.

Take `CS(=O)(=O)NCCCN(c1ccnc(Nc2ccc3[nH]c(=O)[nH]c3c2)n1)c1cccc2[nH]ncc12` [GTC000239A]: the pIC50 is 8.50.

Regarding `CCN(c1nc(Nc2ccc(C(=O)N3CCN(C)CC3)cc2)ncc1F)c1cccc2[nH]ncc12` [GTC000372A], the pIC50 was 6.61.

With `COC(=O)c1ccc(Nc2nccc(Nc3cccc4[nH]ncc34)n2)cc1` [GTC000174A], the pIC50 is 6.76 and 6.68.

Compound `O=S1(=O)CCc2ccc(Nc3ncc(F)c(N(CC4CCCO4)c4cccc5[nH]ncc45)n3)cc21` (stereo not given) [GTC000278A] showed a pIC50 of 8.10.

In the case of `O=C1OCc2cc(Nc3nccc(Nc4cccc5[nH]ncc45)n3)ccc21` [GTC000152A], the pIC50 was 7.16 and 7.05.

On to `COC(=O)c1cccc(Nc2nccc(Nc3cccc4[nH]ncc34)n2)c1` [GTC000127B], for which the pIC50 was 6.60 and 7.23 and 6.90.

As to `O=C1Nc2ccc(Nc3nccc(Nc4cccc5[nH]ncc45)n3)cc2CO1` [GTC000149A], the pIC50 was 8.14 and 7.60.

With `NCCN(c1nc(Nc2ccc3c(c2)S(=O)(=O)CC3)ncc1F)c1cccc2[nH]ncc12` [GTC000371A], the pIC50 is 6.65.
